Assay results taken from ChEMBL document CHEMBL4732205, “Structure-based optimization identified novel furyl-containing 2,4-diarylaminopyrimidine analogues as ALK/ROS1 dual inhibitors with anti-mutation effects” (Eur J Med Chem, 2021).
Activity calls are given as the source filed them. No cut-off for these calls is given here.

Tests used:
MCF7 = assay: Antiproliferative activity against human MCF7 cells assessed as reduction in cell growth incubated for 72 hrs by MTT assay; assay type: functional, cell-based; settings: MCF7, 72 h
A549 = assay: Antiproliferative activity against human A549 cells assessed as reduction in cell growth incubated for 72 hrs by MTT assay; assay type: functional, cell-based; settings: A549, 72 h
KARPAS-299 = assay: Antiproliferative activity against human KARPAS-299 cells assessed as reduction in cell growth incubated for 72 hrs by MTT assay; assay type: functional, cell-based; settings: KARPAS-299, 72 h
NCI-H2228 [1] = assay: Antiproliferative activity against human NCI-H2228 cells assessed as reduction in cell growth incubated for 72 hrs by MTT assay; assay type: functional, cell-based; settings: NCI-H2228, 72 h
[2] = biological target: ALK tyrosine kinase receptor (Homo sapiens, UniProt Q9UM73, G1202R); assay: Inhibition of recombinant human N-terminal GST-tagged ALK G1202R mutant (1058 to 1620 residues) expressed in baculovirus expression system using Srctide as substrate incubated for 1 hr by mobility shift assay
Chain of ALK tyrosine kinase receptor (Homo sapiens, UniProt Q9UM73, G1202R) (Q9UM73 19-1620 G1202R limits assumed): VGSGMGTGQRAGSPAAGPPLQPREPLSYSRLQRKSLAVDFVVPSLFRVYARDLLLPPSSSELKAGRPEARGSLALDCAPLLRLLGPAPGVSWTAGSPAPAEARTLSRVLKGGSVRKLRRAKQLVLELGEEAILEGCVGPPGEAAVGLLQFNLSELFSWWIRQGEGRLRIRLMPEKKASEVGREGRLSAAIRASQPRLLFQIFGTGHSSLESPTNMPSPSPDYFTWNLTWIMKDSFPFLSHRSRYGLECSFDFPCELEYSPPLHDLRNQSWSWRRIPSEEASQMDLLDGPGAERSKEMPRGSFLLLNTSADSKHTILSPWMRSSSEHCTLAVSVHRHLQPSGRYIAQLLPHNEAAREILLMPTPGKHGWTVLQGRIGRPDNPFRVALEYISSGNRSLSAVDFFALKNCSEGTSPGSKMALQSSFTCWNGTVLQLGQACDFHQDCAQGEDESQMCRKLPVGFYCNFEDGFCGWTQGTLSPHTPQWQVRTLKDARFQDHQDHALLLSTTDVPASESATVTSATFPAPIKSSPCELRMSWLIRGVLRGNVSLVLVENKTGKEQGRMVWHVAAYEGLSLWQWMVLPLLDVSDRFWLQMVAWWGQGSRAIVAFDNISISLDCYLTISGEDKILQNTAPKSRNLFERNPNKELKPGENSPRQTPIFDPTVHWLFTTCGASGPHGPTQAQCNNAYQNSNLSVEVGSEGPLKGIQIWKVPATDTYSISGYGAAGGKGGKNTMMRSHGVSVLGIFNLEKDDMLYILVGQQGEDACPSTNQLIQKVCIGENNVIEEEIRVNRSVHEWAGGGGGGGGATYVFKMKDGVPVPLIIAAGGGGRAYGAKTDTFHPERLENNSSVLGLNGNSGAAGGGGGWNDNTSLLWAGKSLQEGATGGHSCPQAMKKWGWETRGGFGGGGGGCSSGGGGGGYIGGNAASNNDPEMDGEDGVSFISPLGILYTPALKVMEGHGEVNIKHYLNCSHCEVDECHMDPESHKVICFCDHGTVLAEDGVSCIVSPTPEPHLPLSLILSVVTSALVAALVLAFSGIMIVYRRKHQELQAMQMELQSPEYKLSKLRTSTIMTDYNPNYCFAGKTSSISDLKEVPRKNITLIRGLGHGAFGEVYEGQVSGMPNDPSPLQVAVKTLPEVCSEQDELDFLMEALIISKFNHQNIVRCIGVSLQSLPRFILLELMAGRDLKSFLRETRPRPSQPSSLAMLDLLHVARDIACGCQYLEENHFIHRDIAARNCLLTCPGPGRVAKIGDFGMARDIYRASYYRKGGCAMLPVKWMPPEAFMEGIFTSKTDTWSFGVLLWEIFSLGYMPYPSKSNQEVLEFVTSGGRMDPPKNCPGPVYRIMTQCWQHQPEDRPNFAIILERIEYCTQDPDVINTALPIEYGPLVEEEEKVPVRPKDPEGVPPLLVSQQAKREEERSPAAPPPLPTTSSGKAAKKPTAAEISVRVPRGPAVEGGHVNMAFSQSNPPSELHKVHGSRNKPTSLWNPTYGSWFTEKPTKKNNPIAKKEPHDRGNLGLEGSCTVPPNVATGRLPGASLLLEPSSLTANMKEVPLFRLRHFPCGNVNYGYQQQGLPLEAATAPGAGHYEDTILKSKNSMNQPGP

[3] = biological target: T1, ALK tyrosine kinase receptor (Homo sapiens, UniProt Q9UM73); assay: Inhibition of recombinant human N-terminal GST-tagged ALK (1058 to 1620 residues) expressed in baculovirus expression system using Srctide as substrate incubated for 1 hr by mobility shift assay
Target sequence in this assay (Q9UM73 whole entry, the tested form may be a part): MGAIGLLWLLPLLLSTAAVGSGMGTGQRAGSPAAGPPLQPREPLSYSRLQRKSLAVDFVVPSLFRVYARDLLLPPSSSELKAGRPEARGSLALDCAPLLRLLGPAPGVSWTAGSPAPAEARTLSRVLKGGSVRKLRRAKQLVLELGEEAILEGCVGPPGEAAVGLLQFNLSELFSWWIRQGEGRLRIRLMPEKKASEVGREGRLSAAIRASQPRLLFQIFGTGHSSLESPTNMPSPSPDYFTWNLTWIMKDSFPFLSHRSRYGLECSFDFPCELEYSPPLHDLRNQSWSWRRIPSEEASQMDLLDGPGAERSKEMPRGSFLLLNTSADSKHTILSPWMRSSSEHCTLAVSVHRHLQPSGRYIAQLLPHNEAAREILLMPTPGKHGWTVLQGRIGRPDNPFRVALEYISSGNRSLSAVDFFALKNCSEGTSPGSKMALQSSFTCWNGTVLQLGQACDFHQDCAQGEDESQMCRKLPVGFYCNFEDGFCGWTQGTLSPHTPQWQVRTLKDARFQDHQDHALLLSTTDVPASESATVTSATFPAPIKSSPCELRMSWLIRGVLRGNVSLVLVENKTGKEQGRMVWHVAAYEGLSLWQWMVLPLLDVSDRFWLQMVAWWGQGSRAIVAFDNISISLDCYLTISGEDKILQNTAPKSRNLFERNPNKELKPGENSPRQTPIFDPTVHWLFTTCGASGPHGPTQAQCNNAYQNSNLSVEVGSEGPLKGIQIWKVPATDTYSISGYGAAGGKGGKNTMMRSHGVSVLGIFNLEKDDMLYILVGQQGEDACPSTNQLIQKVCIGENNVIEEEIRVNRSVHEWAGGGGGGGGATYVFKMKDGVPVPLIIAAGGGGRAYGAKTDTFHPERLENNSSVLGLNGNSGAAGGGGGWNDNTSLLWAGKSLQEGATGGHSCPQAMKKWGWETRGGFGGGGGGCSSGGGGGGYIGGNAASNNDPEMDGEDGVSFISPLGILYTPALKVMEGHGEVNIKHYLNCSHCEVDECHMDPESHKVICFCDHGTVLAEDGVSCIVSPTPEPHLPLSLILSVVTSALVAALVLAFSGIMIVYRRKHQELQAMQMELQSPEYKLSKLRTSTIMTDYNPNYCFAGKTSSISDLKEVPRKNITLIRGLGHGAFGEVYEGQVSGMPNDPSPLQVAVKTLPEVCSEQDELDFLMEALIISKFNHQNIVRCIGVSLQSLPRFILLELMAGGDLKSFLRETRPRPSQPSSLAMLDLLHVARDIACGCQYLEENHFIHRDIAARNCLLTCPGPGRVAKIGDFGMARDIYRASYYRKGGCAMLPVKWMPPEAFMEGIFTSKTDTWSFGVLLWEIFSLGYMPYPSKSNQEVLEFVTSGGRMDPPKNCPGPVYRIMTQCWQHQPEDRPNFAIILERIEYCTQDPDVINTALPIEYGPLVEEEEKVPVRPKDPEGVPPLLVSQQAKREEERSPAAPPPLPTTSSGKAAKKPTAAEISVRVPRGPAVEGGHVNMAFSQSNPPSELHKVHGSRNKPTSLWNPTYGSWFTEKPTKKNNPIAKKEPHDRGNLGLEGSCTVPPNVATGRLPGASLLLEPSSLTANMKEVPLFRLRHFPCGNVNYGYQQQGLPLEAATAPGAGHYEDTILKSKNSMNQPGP

[4] = biological target: Proto-oncogene tyrosine-protein kinase ROS (Homo sapiens, UniProt P08922); assay: Inhibition of recombinant human N-terminal GST-tagged ROS1 (1883 to 2347 residues) expressed in baculovirus expression system using IRS1 as substrate incubated for 1 hr by mobility shift assay
[5] = biological target: ALK tyrosine kinase receptor (Homo sapiens, UniProt Q9UM73, L1196M); assay: Inhibition of recombinant human N-terminal GST-tagged ALK L1196M mutant (1058 to 1620 residues) expressed in baculovirus expression system using Srctide as substrate incubated for 1 hr by mobility shift assay
[6] = biological target: Epidermal growth factor receptor (Homo sapiens, UniProt P00533); assay: Inhibition of recombinant human N-terminal GST-tagged EGFR (669 to 1210 residues) expressed in baculovirus expression system using Srctide as substrate incubated for 1 hr by mobility shift assay
Chain of Epidermal growth factor receptor (P00533 whole entry, the tested form may be a part): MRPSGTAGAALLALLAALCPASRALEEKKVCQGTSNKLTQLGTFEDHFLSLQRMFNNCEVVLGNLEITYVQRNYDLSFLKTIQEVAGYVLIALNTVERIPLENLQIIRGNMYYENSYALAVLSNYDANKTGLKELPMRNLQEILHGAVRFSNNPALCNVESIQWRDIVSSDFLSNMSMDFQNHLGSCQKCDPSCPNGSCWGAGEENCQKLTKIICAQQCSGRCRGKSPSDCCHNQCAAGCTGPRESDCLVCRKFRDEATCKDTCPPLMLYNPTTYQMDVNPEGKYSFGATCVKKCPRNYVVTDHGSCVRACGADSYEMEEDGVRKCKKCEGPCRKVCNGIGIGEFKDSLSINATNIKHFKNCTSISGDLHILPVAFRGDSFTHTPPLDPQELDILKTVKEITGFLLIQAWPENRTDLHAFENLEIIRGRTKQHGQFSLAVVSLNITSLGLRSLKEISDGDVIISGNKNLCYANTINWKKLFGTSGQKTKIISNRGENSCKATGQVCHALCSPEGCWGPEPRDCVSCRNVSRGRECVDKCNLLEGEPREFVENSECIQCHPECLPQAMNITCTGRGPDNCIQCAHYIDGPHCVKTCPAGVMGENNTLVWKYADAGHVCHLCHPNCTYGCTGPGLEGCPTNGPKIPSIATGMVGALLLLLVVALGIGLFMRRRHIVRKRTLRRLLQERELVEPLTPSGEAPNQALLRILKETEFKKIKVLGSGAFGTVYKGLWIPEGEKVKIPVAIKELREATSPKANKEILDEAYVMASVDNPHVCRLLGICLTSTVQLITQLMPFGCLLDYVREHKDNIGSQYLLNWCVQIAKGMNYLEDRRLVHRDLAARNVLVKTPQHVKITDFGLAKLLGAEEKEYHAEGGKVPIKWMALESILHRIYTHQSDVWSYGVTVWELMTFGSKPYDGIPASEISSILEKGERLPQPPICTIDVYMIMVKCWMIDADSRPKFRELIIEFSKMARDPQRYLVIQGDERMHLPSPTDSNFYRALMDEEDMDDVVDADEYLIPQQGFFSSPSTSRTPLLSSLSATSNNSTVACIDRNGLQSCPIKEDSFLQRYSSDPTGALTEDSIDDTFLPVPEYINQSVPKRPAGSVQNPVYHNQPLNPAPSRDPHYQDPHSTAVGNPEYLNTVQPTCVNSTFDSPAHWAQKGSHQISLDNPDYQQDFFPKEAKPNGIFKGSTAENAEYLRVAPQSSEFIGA

[7] = biological target: T1, ALK tyrosine kinase receptor; assay: Inhibition of ALK in human NCI-H2228 cells assessed as reduction in Akt expression at 25 to 100 nM incubated for 24 hrs by Western blot analysis; assay type: cell-based; settings: dose 25-100 nM
NCI-H2228 [8] = assay: Induction of apoptosis in human NCI-H2228 cells assessed as early apoptotic cells by observing morphological changes of cell at 120 nM incubated for 48 hrs by AO-EB staining based fluorescence microscopic analysis; assay type: functional
[9] = biological target: T1, ALK tyrosine kinase receptor; assay: Inhibition of ALK in human NCI-H2228 cells assessed as reduction in ERK expression at 25 to 100 nM incubated for 24 hrs by Western blot analysis; assay type: cell-based; settings: dose 25-100 nM
[10] = biological target: T1, ALK tyrosine kinase receptor; assay: Inhibition of ALK in human NCI-H2228 cells assessed as reduction in ALK phosphorylation incubated for 24 hrs by Western blot analysis; assay type: cell-based
NCI-H2228 [11] = assay: Induction of apoptosis in human NCI-H2228 cells assessed as morphological changes at 30 nM incubated for 48 hrs by AO-EB staining based fluorescence microscopic analysis; assay type: functional, cell-based
NCI-H2228 [12] = assay: Induction of apoptosis in human NCI-H2228 cells assessed as morphological changes incubated for 48 hrs by Hoechst-33258 staining based fluorescence microscopic analysis; assay type: functional, cell-based; settings: dose 30-120 nM
[13] = biological target: T1, ALK tyrosine kinase receptor; assay: Inhibition of ALK in human NCI-H2228 cells assessed as reduction in Akt phosphorylation at 25 to 100 nM incubated for 24 hrs by Western blot analysis; assay type: cell-based; settings: dose 25-100 nM
NCI-H2228 [14] = assay: Effect on ALK expression in human NCI-H2228 cells at 25 to 100 nM incubated for 24 hrs by Western blot analysis; assay type: functional, cell-based; settings: dose 25-100 nM
[15] = tested on: ALK tyrosine kinase receptor (Homo sapiens), Q9UM73 [L1196M]; assay: Potency index, ratio of IC50 of ceritinib to IC50 of compound for inhibition of recombinant human N-terminal GST-tagged ALK L1196M mutant (1058 to 1620 residues) expressed in baculovirus expression system using Srctide as substrate incubated for 1 hr by mobility shift assay
[16] = biological target: T1, ALK tyrosine kinase receptor; assay: Inhibition of ALK in human NCI-H2228 cells assessed as reduction in ALK phosphorylation at 100 nM incubated for 24 hrs by Western blot analysis relative to control; assay type: cell-based
[17] = biological target: T1, ALK tyrosine kinase receptor; assay: Inhibition of ALK in human NCI-H2228 cells assessed as reduction in Erk phosphorylation at 25 to 100 nM incubated for 24 hrs by Western blot analysis; assay type: cell-based; settings: dose 25-100 nM
[18] = tested on: ALK tyrosine kinase receptor (Homo sapiens), Q9UM73 [G1202R]; assay: Potency index, ratio of IC50 of ceritinib to IC50 of compound for inhibition of recombinant human N-terminal GST-tagged ALK G1202R mutant (1058 to 1620 residues) expressed in baculovirus expression system using Srctide as substrate incubated for 1 hr by mobility shift assay

SMILES	IC50 (MCF7) [nM]	IC50 (A549) [nM]	IC50 (KARPAS-299) [nM]	IC50 (NCI-H2228 [1]) [nM]	also measured
COc1cc(SCc2ccc(CN3CCSCC3)o2)ccc1Nc1ncc(Cl)c(Nc2ccccc2NS(C)(=O)=O)n1	> 10000	> 10000	660	860	
COc1cc(SCc2ccc(CN3CCCC3)o2)ccc1Nc1ncc(Cl)c(Nc2ccccc2NS(C)(=O)=O)n1	2810	> 10000	70	140	IC50 [2]: 3.9 nM; IC50 [3]: 3.4 nM; IC50 [4]: 4.2 nM; IC50 [5]: 2.8 nM; IC50 [6]: > 1000 nM
COc1cc(NCc2ccc(CN3CCN(C)CC3)o2)ccc1Nc1ncc(Cl)c(Nc2ccccc2NS(C)(=O)=O)n1	> 10000	> 10000	360	480	
COc1cc(OCc2ccco2)ccc1Nc1ncc(Cl)c(Nc2ccccc2NS(C)(=O)=O)n1	> 10000	> 10000		1590	
CCN1CCN(Cc2ccc(CSc3ccc(Nc4ncc(Cl)c(Nc5ccccc5NS(C)(=O)=O)n4)c(OC)c3)o2)CC1	> 10000	> 10000	280	670	
COc1cc(SCc2ccc(CN3CCC(C)CC3)o2)ccc1Nc1ncc(Cl)c(Nc2ccccc2NS(C)(=O)=O)n1	> 10000	> 10000	120	200	
COc1cc(NCC2CCCO2)ccc1Nc1ncc(Cl)c(Nc2ccccc2NS(C)(=O)=O)n1 (stereo not given)	> 10000	800	250	140	IC50 [2]: 4.5 nM; IC50 [3]: 3.2 nM; IC50 [4]: 4.6 nM; IC50 [5]: 5.8 nM; IC50 [6]: > 1000 nM
Cc1cc(Nc2ncc(Cl)c(Nc3ccccc3S(=O)(=O)C(C)C)n2)c(OC(C)C)cc1C1CCNCC1 [CERITINIB]	> 10000		80		
COc1cc(NCc2ccc(CN3CCN(CCO)CC3)o2)ccc1Nc1ncc(Cl)c(Nc2ccccc2NS(C)(=O)=O)n1	> 10000	> 10000	870	990	
COc1cc(OCC2CCCO2)ccc1Nc1ncc(Cl)c(Nc2ccccc2NS(C)(=O)=O)n1 (stereo not given)	> 10000	> 10000	190	90	IC50 [2]: 2.1 nM; IC50 [3]: 3 nM; IC50 [4]: 3.7 nM; IC50 [5]: 3.3 nM; IC50 [6]: > 1000 nM
COc1cc(S(=O)(=O)Cc2ccco2)ccc1Nc1ncc(Cl)c(Nc2ccccc2NS(C)(=O)=O)n1	> 10000	> 10000	1230	1700	
COc1cc(SCc2ccc(CN3CCN(C)CC3)o2)ccc1Nc1ncc(Cl)c(Nc2ccccc2NS(C)(=O)=O)n1	> 10000	> 10000	140	480	
COc1cc(NCc2ccc(CN3CCSCC3)o2)ccc1Nc1ncc(Cl)c(Nc2ccccc2NS(C)(=O)=O)n1	> 10000	> 10000	1020	1600	
COc1cc(S(=O)(=O)Cc2ccco2)ccc1Nc1ncc(Cl)c(Nc2ccccc2NC(C)=O)n1	> 10000	> 10000	2410	3790	
CCN(CC)Cc1ccc(CNc2ccc(Nc3ncc(Cl)c(Nc4ccccc4NS(C)(=O)=O)n3)c(OC)c2)o1	> 10000	3560	350	570	
COc1cc(SCc2ccc(CN(C)C)o2)ccc1Nc1ncc(Cl)c(Nc2ccccc2NS(C)(=O)=O)n1	> 10000	> 10000	20	110	inhibition [7]: Active; Activity (NCI-H2228 [8]): Active; inhibition [9]: Active; inhibition [10]: Dose-dependent effect; Activity (NCI-H2228 [11]): Active; IC50 [2]: 3.8 nM; Activity (NCI-H2228 [12]): Dose-dependent effect; inhibition [13]: Active; IC50 [3]: 2.8 nM; Activity (NCI-H2228 [14]): Active; Ratio IC50 [15]: 5; inhibition [16]: 100%; IC50 [4]: 2.3 nM; inhibition [17]: Active; Ratio IC50 [18]: 5; IC50 [5]: 2.6 nM; IC50 [6]: > 1000 nM
COc1cc(NCc2ccc(CN3CCOCC3)o2)ccc1Nc1ncc(Cl)c(Nc2ccccc2NS(C)(=O)=O)n1	> 10000	> 10000	230	320	

Second part, led by results:

IC50 (MCF7) [nM]	IC50 (A549) [nM]	IC50 (KARPAS-299) [nM]	IC50 (NCI-H2228 [1]) [nM]	SMILES	also measured
> 10000	3040	200	520	COc1cc(NCc2ccc(CN(C)C)o2)ccc1Nc1ncc(Cl)c(Nc2ccccc2NS(C)(=O)=O)n1	
> 10000	> 10000	820	1360	COc1cc(SCc2ccco2)ccc1Nc1ncc(Cl)c(Nc2ccccc2NS(C)(=O)=O)n1	
> 10000	> 10000	510	820	COc1cc(SCc2ccc(CN3CCN(CCO)CC3)o2)ccc1Nc1ncc(Cl)c(Nc2ccccc2NS(C)(=O)=O)n1	
> 10000	> 10000	980	1580	COc1cc(NCc2ccco2)ccc1Nc1ncc(Cl)c(Nc2ccccc2NS(C)(=O)=O)n1	
> 10000	> 10000	180	340	CCN(CC)Cc1ccc(CSc2ccc(Nc3ncc(Cl)c(Nc4ccccc4NS(C)(=O)=O)n3)c(OC)c2)o1	
> 10000	3920	350	500	COc1cc(SCc2ccc(CN3CCCCC3)o2)ccc1Nc1ncc(Cl)c(Nc2ccccc2NS(C)(=O)=O)n1	
> 10000	920	150	430	COc1cc(SCc2ccc(CN3CCOCC3)o2)ccc1Nc1ncc(Cl)c(Nc2ccccc2NS(C)(=O)=O)n1	
> 10000	2360	280	350	COc1cc(NCc2ccc(CN3CCCCC3)o2)ccc1Nc1ncc(Cl)c(Nc2ccccc2NS(C)(=O)=O)n1	
> 10000	> 10000	400	720	CCN1CCN(Cc2ccc(CNc3ccc(Nc4ncc(Cl)c(Nc5ccccc5NS(C)(=O)=O)n4)c(OC)c3)o2)CC1	
> 10000	> 10000	620	530	COc1cc(NCc2ccc(CN3CCC(C)CC3)o2)ccc1Nc1ncc(Cl)c(Nc2ccccc2NS(C)(=O)=O)n1	
> 10000	> 10000	350	420	COc1cc(NCc2ccc(CN3CCCC3)o2)ccc1Nc1ncc(Cl)c(Nc2ccccc2NS(C)(=O)=O)n1	
> 10000	> 10000	2470	3540	COc1cc(NCc2ccco2)ccc1Nc1ncc(Cl)c(Nc2ccccc2NC(C)=O)n1	
